Key:
Homo sapiens [1] = test: Unbound biliary clearance in iv dosed human after 24 hrs by T-tube method; type: ADME, organism-based, Bile; conditions: in vivo
Homo sapiens [2] = test: Total biliary clearance in iv dosed human after 24 hrs by T-tube method; type: ADME, organism-based, Bile; conditions: in vivo
Rattus norvegicus [3] = test: Total biliary clearance in iv dosed rat; type: ADME, organism-based, Bile; conditions: in vivo
[4] = Drug excretion in iv dosed human assessed as compound excreted into bile after 24 hrs by T-tube method; type: ADME, organism-based; conditions: read-out: Drug excretion
Rattus norvegicus [5] = test: Unbound biliary clearance in iv dosed rat; type: ADME, organism-based, Bile; conditions: in vivo
[6] = Drug excretion in iv dosed rat assessed as compound excreted into bile; type: ADME, organism-based; conditions: read-out: Drug excretion
[7] = Drug excretion in iv dosed dog assessed as compound excreted into bile; type: ADME, organism-based, Canis lupus familiaris; conditions: read-out: Drug excretion
[8] = Drug excretion in human assessed as compound excreted into bile; type: ADME; conditions: read-out: Drug excretion
[9] = Drug excretion in beagle dog assessed as compound excreted into bile at 20 mg/kg, iv; type: ADME, organism-based, Canis lupus familiaris; parameters: dose 20 mg/kg, route intravenous; conditions: read-out: Drug excretion
Rattus norvegicus [10] = test: Unbound biliary clearance in Sprague-Dawley rat at 20 mg/kg, iv; type: ADME, organism-based, Bile; parameters: dose 20 mg/kg, route intravenous; conditions: in vivo
[11] = Drug excretion in iv dosed human assessed as compound excreted into bile after 6 to 8 hrs by duodenal perfusion method; type: ADME, organism-based; conditions: read-out: Drug excretion
Homo sapiens [12] = test: Unbound biliary clearance in iv dosed human after 6 to 8 hrs by duodenal perfusion method; type: ADME, organism-based, Bile; conditions: in vivo
Canis familiaris [13] = test: Unbound biliary clearance in beagle dog at 20 mg/kg, iv; type: ADME, organism-based, Canis lupus familiaris, Bile; parameters: dose 20 mg/kg, route intravenous; conditions: in vivo
Canis familiaris [14] = test: Total biliary clearance in beagle dog at 20 mg/kg, iv; type: ADME, organism-based, Canis lupus familiaris, Bile; parameters: dose 20 mg/kg, route intravenous; conditions: in vivo
Homo sapiens [15] = test: Total biliary clearance in iv dosed human after 6 to 8 hrs by duodenal perfusion method; type: ADME, organism-based, Bile; conditions: in vivo
Rattus norvegicus [16] = test: Total biliary clearance in Sprague-Dawley rat at 20 mg/kg, iv; type: ADME, organism-based, Bile; parameters: dose 20 mg/kg, route intravenous; conditions: in vivo
[17] = Drug excretion in Sprague-Dawley rat assessed as compound excreted into bile at 20 mg/kg, iv; type: ADME, organism-based; parameters: dose 20 mg/kg, route intravenous; conditions: read-out: Drug excretion
[18] = Drug excretion in human assessed as compound excreted into bile at 60 mg, po after 12 hrs by fecal extraction method
[19] = Drug excretion in iv dosed Wistar rat assessed as compound excreted into bile; type: ADME, organism-based; conditions: read-out: Drug excretion
[20] = Drug excretion in human assessed as compound excreted into bile at 2 gm, iv after 24 hrs by T-tube method; type: ADME, organism-based; conditions: read-out: Drug excretion
[21] = Drug excretion in po dosed human assessed as compound excreted into bile after 24 hrs by T-tube method; type: ADME, organism-based; conditions: read-out: Drug excretion
[22] = Drug excretion in rat assessed as compound excreted into bile at 10 mg/kg, iv
[23] = Drug excretion in human assessed as compound excreted into bile at 400 mg, po after 24 hrs by T-tube method
Rattus norvegicus [24] = test: Total biliary clearance in Sprague-Dawley rat at 5 mg/kg, iv; type: ADME, organism-based, Bile; parameters: dose 5 mg/kg, route intravenous; conditions: in vivo
Canis familiaris [25] = test: Unbound biliary clearance in iv dosed dog; type: ADME, organism-based, Canis lupus familiaris, Bile; conditions: in vivo
Rattus norvegicus [26] = test: Unbound biliary clearance in Sprague-Dawley rat at 5 mg/kg, iv; type: ADME, organism-based, Bile; parameters: dose 5 mg/kg, route intravenous; conditions: in vivo
Canis familiaris [27] = test: Total biliary clearance in iv dosed dog; type: ADME, organism-based, Canis lupus familiaris, Bile; conditions: in vivo
[28] = Drug excretion in Sprague-Dawley rat assessed as compound excreted into bile at 5 mg/kg, iv; type: ADME, organism-based; parameters: dose 5 mg/kg, route intravenous; conditions: read-out: Drug excretion
Homo sapiens [29] = test: Total biliary clearance in iv dosed human after 7 hrs by duodenal perfusion method; type: ADME, organism-based, Bile; conditions: in vivo
[30] = Drug excretion in iv dosed human assessed as compound excreted into bile after 7 hrs by duodenal perfusion method; type: ADME, organism-based; conditions: read-out: Drug excretion
Homo sapiens [31] = test: Unbound biliary clearance in iv dosed human after 7 hrs by duodenal perfusion method; type: ADME, organism-based, Bile; conditions: in vivo

With `CC[C@H](C)C(=O)O[C@H]1C[C@H](O)C=C2C=C[C@H](C)[C@H](CC[C@@H](O)C[C@@H](O)CC(=O)O)[C@H]21` [PRAVASTATIN] as the compound, how does the CL free (Homo sapiens [1]) read?
The CL free was 6.21 mL/min/kg.

And the CL (Homo sapiens [2])?
Its CL is 3.105 mL/min/kg.

What about the CL (Rattus norvegicus [3]) of the same compound?
The CL was 27.5 mL/min/kg.

And the dose excreted at 24 h [4]?
Its dose excreted at 24 h is 23%.

And the CL free (Rattus norvegicus [5])?
Its CL free is 78.57 mL/min/kg.

What about the dose excreted [6] of the same compound?
The dose excreted was 40%.

For `N=C(N)N1CCC[C@@H](CNC(=O)C[C@H](NS(=O)(=O)c2ccc3ccccc3c2)C(=O)N(CC(=O)O)C2CC2)C1` [NAPSAGATRAN ANHYDROUS], which dose excreted [7] is on record?
Its dose excreted is 97%.

What about the dose excreted [8] of the same compound?
Its dose excreted is 60%.

And the dose excreted [6]?
The dose excreted was 61%.

What does the source list for `CO/N=C(\C(=O)N[C@@H]1C(=O)N2C(C(=O)O)=C(CSc3nc(=O)c(=O)[nH]n3C)CS[C@H]12)c1csc(N)n1` [CEFTRIAXONE]?
dose excreted [9]: 63%; CL free (Rattus norvegicus [10]): 12.73 mL/min/kg; dose excreted [11]: 30%; CL free (Homo sapiens [12]): 0.933 mL/min/kg; CL free (Canis familiaris [13]): 2.907 mL/min/kg; CL (Canis familiaris [14]): 2.5 mL/min/kg; CL (Homo sapiens [15]): 0.07 mL/min/kg; CL (Rattus norvegicus [16]): 0.82 mL/min/kg; dose excreted [17]: 62%

Which dose excreted at 12 h [18] does the source give for `CC(C)(C(=O)O)c1ccc(C(O)CCCN2CCC(C(O)(c3ccccc3)c3ccccc3)CC2)cc1` (stereo not given) [FEXOFENADINE] here?
The dose excreted at 12 h was 23%.

What about the dose excreted [19] of the same compound?
The dose excreted was 28%.

Which results are given for `CCN1CCN(C(=O)N[C@@H](C(=O)N[C@@H]2C(=O)N3C(C(=O)O)=C(CSc4nnnn4C)CS[C@H]23)c2ccc(O)cc2)C(=O)C1=O` [CEFOPERAZONE]?
dose excreted at 24 h [20]: 12%; dose excreted [6]: 86%

With `CCC(=O)C(CC(C)N(C)C)(c1ccccc1)c1ccccc1` (stereo not given) [METHADONE] as the compound, how does the dose excreted at 24 h [21] read?
The dose excreted at 24 h was 0.06%.

What about the dose excreted [6] of the same compound?
The dose excreted was 9%.

What does the source list for `O=C(O)c1cn(C2CC2)c2cc(N3CCNCC3)c(F)cc2c1=O` [CIPROFLOXACIN]?
dose excreted [22]: 10%; dose excreted at 24 h [23]: 0.5%

With `COc1cccc2c1C(=O)c1c(O)c3c(c(O)c1C2=O)C[C@@](O)(C(=O)CO)C[C@@H]3O[C@H]1C[C@H](N)[C@H](O)[C@H](C)O1` [DOXORUBICIN] as the compound, how does the dose excreted [7] read?
Its dose excreted is 10%.

And the CL free (Homo sapiens [1])?
Its CL free is 7.268 mL/min/kg.

And the CL (Rattus norvegicus [24])?
The CL was 3.68 mL/min/kg.

And the CL (Homo sapiens [2])?
Its CL is 2.035 mL/min/kg.

What about the CL free (Canis familiaris [25]) of the same compound?
The CL free was 5.059 mL/min/kg.

What about the CL free (Rattus norvegicus [26]) of the same compound?
The CL free was 10.82 mL/min/kg.

What about the dose excreted at 24 h [4] of the same compound?
The dose excreted at 24 h was 14%.

And the CL (Canis familiaris [27])?
Its CL is 1.72 mL/min/kg.

What about the dose excreted [28] of the same compound?
The dose excreted was 17%.

For `CO[C@@]1(NC(=O)C2SC(=C(C(N)=O)C(=O)O)S2)C(=O)N2C(C(=O)O)=C(CSc3nnnn3C)CS[C@@H]21` (stereo not given in full) [CEFOTETAN], which dose excreted [7] is on record?
Its dose excreted is 17%.

What about the CL (Homo sapiens [29]) of the same compound?
The CL was 0.048 mL/min/kg.

And the CL (Rattus norvegicus [3])?
The CL was 6.14 mL/min/kg.

And the dose excreted at 7 h [30]?
Its dose excreted at 7 h is 11%.

And the CL free (Canis familiaris [25])?
Its CL free is 1.141 mL/min/kg.

What about the CL free (Homo sapiens [31]) of the same compound?
Its CL free is 0.32 mL/min/kg.

What about the CL free (Rattus norvegicus [5]) of the same compound?
The CL free was 8.771 mL/min/kg.

What about the CL (Canis familiaris [27]) of the same compound?
The CL was 0.696 mL/min/kg.

What about the dose excreted [6] of the same compound?
The dose excreted was 48%.

Which dose excreted [6] does the source give for `CC1=C(C(=O)O)N2C(=O)[C@@H](NC(=O)[C@H](N)c3ccccc3)[C@H]2SC1` [CEPHALEXIN ANHYDROUS] here?
The dose excreted was 32%.

From ChEMBL document CHEMBL3526096, “Species differences in biliary clearance and possible relevance of hepatic uptake and efflux transporters involvement” (Drug Metab Dispos, 2013)
